Reference: US12180198B2, “Ribocil C antibiotics effective for Gram-negative pathogens” (THE BOARD OF TRUSTEES OF THE UNIVERSITY OF ILLINOIS, priority 2018, dated 2024)
Where a name gives a salt, the structure may show the parent alone.

Tests used:
[1] = system: Gram-negative ESKAPE pathogens and E. coli; experiment: MIC, micro-dilution broth method (text summary); assay type: cell-based
[2] = system: carbepenem-resistant K. pneumoniae; experiment: Sepsis survival and pneumonia bacterial burden models; assay type: in vivo; conditions: CD-1 mice, K. pneumoniae BAA-1705, 50 mg/kg IV
Protocol: (§1) FIG. 4. In vivo efficacy of Debio-1452-NH3. A. Kaplan-Meier survival curve of mouse efficacy model of A. baumannii sepsis. Seven-week-old CD-1 mice were infected with A. baumannii W41979 (2.6×10^8 CFU/mouse, 15 mice per group) via IV injection. Mice were treated once-a-day for 4 days with FabI inhibitor (IV, 50 mg/kg). Log-rank test, p<0.0001. B. Acute pneumonia infections initiated in CD-1 mice with A. baumannii W41979 (2.1×10^8 CFU/mouse, intranasal) were treated with vehicle (8 mice) or FabI inhibitor (10 mice per group) 8, 30, and 48 h post-infection (IV, 50 mg/kg), and the bacterial burden was evaluated 72 h post-infection. C. […] Acute pneumonia infections initiated in CD-1 mice with K. pneumoniae BAA-1705 (4.4×10^8 CFU/mouse, intranasal) were treated with vehicle or FabI inhibitor (8 mice per group) 6, 23, and 45 h post-infection (IV, 50 mg/kg), and the bacterial burden was evaluated 72 h post-infection. […] Acute pneumonia infections initiated in CD-1 mice with E. coli AR-0493 (1.73×10^8 CFU/mouse, intranasal) were treated with vehicle or FabI inhibitor (8 mice per group) 6 and 28 h post-infection (IV, 50 mg/kg), and the bacterial burden was evaluated 48 h post-infection. […]
(§2) Acute pneumonia bacterial burden model. […] At 48 h post-infection (E. coli) or 72 h post-infection (A. baumannii and K. pneumoniae), CFU were determined in the lungs through serial dilutions. […]

[3] = system: colistin-resistant E. coli; experiment: as above; assay type: in vivo; conditions: CD-1 mice, E. coli AR-0493, 50 mg/kg IV
Protocol: as §1, §2

[4] = system: A. baumannii W41979; experiment: Bacterial sepsis survival model; assay type: in vivo; conditions: CD-1 mice, 50 mg/kg IV once-per-day, four doses
Protocol: as §1, with “C. Kaplan-Meier survival curve of in vivo efficacy model of K. pneumonia sepsis. Seven-week-old CD-1 mice were infected with K. pneumoniae BAA-1705 (1.08×10^8 CFU/mouse, 15 mice per group) via IV injection.” for “C.”

[5] = Mouse MTD
Protocol: The protocol was approved by the IACUC at the University of Illinois at Urbana-Champaign (Protocol Number: 16144). In these studies, 10- to 12-week-old female C57BL/6 mice purchased from Charles River were used. The maximum tolerate dose (MTD) of a single compound was determined first. […] For multiple doses, the compound was given by daily IP for 5 consecutive days and mice were monitored for signs of toxicity for 1 month. MTD was the highest dosage with acceptable toxicity (e.g., <20% weight loss). Single dose MTDs were initially determined.

[6] = system: E. coli harboring FabI A116V; experiment: MIC against resistant mutants; assay type: cell-based; conditions: Escherichia coli
Protocol: (§3) Antimicrobial susceptibility tests. Susceptibility testing was performed in biological triplicate, using the micro-dilution broth method as outlined by the Clinical and Laboratory Standards Institute. Bacteria were cultured with cation-adjusted Muller-Hinton broth (Sigma-Aldrich, Cat #90922) in round-bottom 96-well plates (Corning, Cat #3788). Human serum (pooled gender, 0.2 μm filtered) was purchased from BioIVT (Hicksville, NY).
(§4) Selection of resistant mutants. Resistant mutants were selected via the large inoculum method.

[7] = system: E. cloacae, K. pneumoniae, and A. baumannii; experiment: MIC, micro-dilution broth method (text summary); assay type: cell-based; conditions: strains of E. cloacae
[8] = system: strains harboring FabI G148S; experiment: MIC against resistant mutants; assay type: cell-based, E. coli; conditions: Escherichia coli, FABIG148S
Protocol: as §3, §4

[9] = system: A. baumannii W41979; experiment: Acute pneumonia bacterial burden model; assay type: in vivo; conditions: CD-1 mice, 50 mg/kg IV
Protocol: as §1, §2

| Compound | MIC ([1]; Escherichia coli, Gram-negative ESKAPE pathogens and E. coli) | activity (in words) ([1]; Gram-negatives with intact outer membranes) | efficacy in infected mice (in words) [2] | efficacy in infected mice (in words) [3] | survival (in words) [4] | dose well tolerated in mice ([5]; female, C57BL/6, mouse, in vivo, ip, 5 days) | single dose well tolerated ([5]; mice, IP injection, single dose, monitored 2 weeks) | daily dosing well tolerated ([5]; mice, IP, daily for 5 consecutive days) | MIC [6] | MIC [7] | MIC [8] | bacterial burden (in words) [9] |
| --- | --- | --- | --- | --- | --- | --- | --- | --- | --- | --- | --- | --- |
| Cc1c(CN(C)C(=O)/C=C/c2cnc3c(c2)CCC(=O)N3)oc2ccccc12 [Debio-1452, (E)-N-methyl-N-((3-methylbenzofuran-2-yl)methyl)-3-(7-oxo-5,6,7,8-tetrahydro-1,8-naphthyridin-3-yl)acrylamide, reference compound] | > 32 µg/mL | no activity | – | – | – | – | – | – | – | – | – | – |
| Cc1c(CN(C)C(=O)/C=C/c2cnc3c(c2)CC(N)C(=O)N3)oc2ccccc12 (stereo not drawn) [Debio-1452-NH3, (E)-3-(6-amino-7-oxo-5,6,7,8-tetrahydro-1,8-naphthyridin-3-yl)-N-methyl-N-((3-methylbenzofuran-2-yl)methyl)acrylamide hydrochloride] | – | – | efficacy | efficacy | significantly increased survival | 50 mg/kg | 50 mg/kg | 50 mg/kg | 64 µg/mL | 4 to 8 µg/mL | > 64 µg/mL | reduced bacterial burden |
